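Following 48 hours of exposure in 96-well plates, responses at five concentrations were used to interpolate endpoints linearly. The concentration for 50% growth inhibition is given as GI50. The concentration for full growth arrest is given as TGI.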
These molecules were tested on SF-539 CNS (assay: DTP human tumour cell line panel, 48 h).

Row | Structure (SMILES) | GI50 [µM] | TGI [µM]
1 | COc1cccc(/C=N/[N-]C(=O)c2ccncc2)c1[O-].COc1cccc(/C=N/[N-]C(=O)c2ccncc2)c1[O-].[O]=[U](=[O])([OH2+])[OH2+] | 4.27 | > 42.8
2 | CC(C)(C)c1ccc2c(c1)S(=O)(=O)Nc1ccc(Cl)cc1NS(=O)(=O)c1cc(C(C)(C)C)ccc1OCCOCCOCCO2 |  | > 100
3 | N#CC(=Nc1ccccc1N(C(=O)c1ccccc1)C(=O)c1ccccc1)c1ccccc1 |  | > 100
4 | COC(=O)C(=O)C(C(C)=O)C(=O)NCc1ccc(OC)c(OC)c1 (configuration not stated) |  | > 100
5 | Nc1c(-c2ccccc2-c2c(N)[n+]([O-])c3ccccc3[n+]2[O-])[n+]([O-])c2ccccc2[n+]1[O-] |  | 71.7
6 | COc1ccc(-c2nc(-c3cc(OC)cc(OC)c3)[nH]c2-c2ccc(OC)cc2)cc1 | > 100 | > 100
7 | O=C(CC(=O)C1CCOC1=O)C(=O)Nc1cccc(Cl)c1 (configuration not stated) |  | > 100
8 | CCN1c2ccccc2-c2c3c1cc(C)cc3c1ccccc1[n+]2CC |  | 2.51
9 | Cc1cccc(C2=C/C(=C(\SS/C(C(=O)c3ccc(OCC(=O)O)c(Cl)c3Cl)=C3\C=C(c4cccc(C)c4)SS3)C(=O)c3ccc(OCC(=O)O)c(Cl)c3Cl)SS2)c1 |  | 39.9
10 | O=C(Cc1nc2c3c(ccc2[nH]c1=O)C(=O)c1ccccc1C3=O)C(=O)Nc1ccccc1[N+](=O)[O-] |  | 34.6
11 | Nc1nc(-c2ccc(Cl)c([N+](=O)[O-])c2)cs1 |  | > 100
12 | COc1cc(/C=C2\[C@H]3c4c(c(OC)c(C)c(OC)c4OC)CC(C(=O)N2Cc2ccccc2)N3C)c(OC)c(C)c1OC |  | 33.4
13 | CC1(C)CN=C(NN=C(/C=C/c2ccc(C(F)(F)F)cc2)/C=C/c2ccc(C(F)(F)F)cc2)NC1 | 1.85 | 3.45
14 | COc1cc(/C=C\c2cc(OC)c(OC)c(OC)c2)cc(N/C=C\C(=O)c2c[nH]c3ccccc23)c1OC | 1.7 | 3.19
15 | CCCCCCCCCCNC(=O)CI | 1.78 | 3.22
16 | Cc1cc(N/N=C/c2ccccn2)nc2ccccc12 | 0.289 | 1.04
17 | O=C(N/C(=C\c1ccc([N+](=O)[O-])cc1)c1nc2ccccc2[nH]1)c1ccccc1 |  | > 100
18 | COC(=O)/C([Se]c1c(C)cc(C)cc1C)=C(/[Se]c1c(C)cc(C)cc1C)C(=O)OC |  | > 100
19 | CC(C)(C)[Si](C)(C)OC1[C@@H](CNC(=O)NC(=O)CCl)O[C@@H](n2cnc3c(N)ncnc32)[C@H]1O[Si](C)(C)C(C)(C)C (some centres not stated) | 0.944 | 1.67
20 | NC(=O)C(=O)CC(=O)c1ccccc1NC1=CC(=O)C(=O)c2ccccc21 |  | > 100
21 | Cc1cc2c(c(C(N)=O)c1C)-c1ccccc1C2=O |  | > 100
22 | COC(=O)/C(=N/O)C(C(=O)C=C(C)C)C(=O)C(=O)Nc1nc2ccc([N+](=O)[O-])cc2s1 (configuration not stated) |  | 78.3
23 | Cc1ccccc1C1=[N+]([O-])c2ccc(Cl)cc2C1=O |  | 31.6
24 | Cc1[nH]c2ccccc2c1C1Cc2ccccc2N1C(=O)C#Cc1ccc([N+](=O)[O-])cc1 (configuration not stated) |  | > 100
25 | CCOC(=O)NC(=O)c1cn(C2CCCCC2)c(=O)[nH]c1=O |  | > 100
26 | Cn1c(=O)nc2n(-c3cc(C(F)(F)F)cc(C(F)(F)F)c3)c3ccccc3nc-2c1=O |  | > 100

What follows are molecules tested on SNB-19 CNS (assay: DTP human tumour cell line panel, 48 h).

Row | Structure (SMILES) | GI50 [µM] | TGI [µM]
27 | O=C1CCCN1c1ccccc1I(=O)=O | > 100 | > 100
28 | Nc1ccccc1C(=O)/C=C/c1c(O)ccc2ccccc12 |  | > 100
29 | CC(C)c1[nH]nc2c1N=C(c1ccccc1Cl)c1cc([N+](=O)[O-])ccc1N2 | 11.8 | > 25
30 | CCC1CN2CCc3cc(OC)c(OC)cc3C2CC1CC1c2cc(OC)c(OC)cc2CCN1C(=O)C1CCCN1 (configuration not stated) |  | > 100
31 | CC(C(=O)c1ccc(Cl)cc1)/C(=N/NC(=O)NN)C(=O)Nc1cccc(C(F)(F)F)c1 (configuration not stated) |  | > 100
32 | CCOP(=O)(OCC)C(C(=O)OC)C(=O)C(=O)Nc1ccc(Cl)cc1Cl (configuration not stated) |  | > 100
33 | CC(C)=C1CCC(CN(C)C)C1=O (configuration not stated) |  | > 100
34 | COc1cccc(/C=N/[N-]C(=O)c2ccncc2)c1[O-].COc1cccc(/C=N/[N-]C(=O)c2ccncc2)c1[O-].[O]=[U](=[O])([OH2+])[OH2+] | 9.44 | > 100
35 | CC(C)(C)c1ccc2c(c1)S(=O)(=O)Nc1ccc(Cl)cc1NS(=O)(=O)c1cc(C(C)(C)C)ccc1OCCOCCOCCO2 |  | > 100
36 | N#CC(=Nc1ccccc1N(C(=O)c1ccccc1)C(=O)c1ccccc1)c1ccccc1 |  | > 54.9
37 | COc1c(C)n(CCO)ccc1=O |  | > 100
38 | COC(=O)C(=O)C(C(C)=O)C(=O)NCc1ccc(OC)c(OC)c1 (configuration not stated) |  | > 100
39 | Nc1c(-c2ccccc2-c2c(N)[n+]([O-])c3ccccc3[n+]2[O-])[n+]([O-])c2ccccc2[n+]1[O-] |  | > 100
40 | CCOC(=O)NC(=O)c1cn(C(CC)COC(=O)NCCCCCCNC(=O)OCC(CC)n2cc(C(=O)NC(=O)OCC)c(=O)[nH]c2=O)c(=O)[nH]c1=O (configuration not stated) |  | > 100
41 | COc1ccc(-c2nc(-c3cc(OC)cc(OC)c3)[nH]c2-c2ccc(OC)cc2)cc1 | > 100 | > 100
42 | O=C(CC(=O)C1CCOC1=O)C(=O)Nc1cccc(Cl)c1 (configuration not stated) |  | > 100
43 | CCN1c2ccccc2-c2c3c1cc(C)cc3c1ccccc1[n+]2CC |  | 3.16
44 | Cc1cccc(C2=C/C(=C(\SS/C(C(=O)c3ccc(OCC(=O)O)c(Cl)c3Cl)=C3\C=C(c4cccc(C)c4)SS3)C(=O)c3ccc(OCC(=O)O)c(Cl)c3Cl)SS2)c1 |  | 43.7
45 | O=C(Cc1nc2c3c(ccc2[nH]c1=O)C(=O)c1ccccc1C3=O)C(=O)Nc1ccccc1[N+](=O)[O-] |  | 32.9

Row | Structure (SMILES) | GI50 [µM] | TGI [µM]
46 | CC1=C(C#N)C(=O)CC(c2ccc(Cl)cc2)N(C)N1 (configuration not stated) |  | > 100
47 | Nc1nc(-c2ccc(Cl)c([N+](=O)[O-])c2)cs1 |  | > 100
48 | COc1cc(/C=C2\[C@H]3c4c(c(OC)c(C)c(OC)c4OC)CC(C(=O)N2Cc2ccccc2)N3C)c(OC)c(C)c1OC |  | 73.8
49 | CC1(C)CN=C(NN=C(/C=C/c2ccc(C(F)(F)F)cc2)/C=C/c2ccc(C(F)(F)F)cc2)NC1 | 1.5 | 3.18
50 | COc1cc(/C=C\c2cc(OC)c(OC)c(OC)c2)cc(N/C=C\C(=O)c2c[nH]c3ccccc23)c1OC | 3.92 | 24.4
51 | CCCCCCCCCCNC(=O)CI | 11.2 | 23.9
52 | Cc1cc(N/N=C/c2ccccn2)nc2ccccc12 | 0.535 | 26.3
53 | O=C(N/C(=C\c1ccc([N+](=O)[O-])cc1)c1nc2ccccc2[nH]1)c1ccccc1 |  | > 100
54 | COC(=O)/C([Se]c1c(C)cc(C)cc1C)=C(/[Se]c1c(C)cc(C)cc1C)C(=O)OC |  | > 100
55 | CC(C)(C)[Si](C)(C)OC1[C@@H](CNC(=O)NC(=O)CCl)O[C@@H](n2cnc3c(N)ncnc32)[C@H]1O[Si](C)(C)C(C)(C)C (some centres not stated) | 2.43 | 9.46
56 | NC(=O)C(=O)CC(=O)c1ccccc1NC1=CC(=O)C(=O)c2ccccc21 |  | > 100
57 | Cc1cc2c(c(C(N)=O)c1C)-c1ccccc1C2=O |  | > 100
58 | COC(=O)/C(=N/O)C(C(=O)C=C(C)C)C(=O)C(=O)Nc1nc2ccc([N+](=O)[O-])cc2s1 (configuration not stated) |  | > 100
59 | Cc1ccccc1C1=[N+]([O-])c2ccc(Cl)cc2C1=O |  | 64.4
60 | c1coc(-c2c3ccc(=[N+]4CCCCC4)cc-3oc3cc(N4CCCCC4)ccc23)c1 | 0.195 | 1.56
61 | Cc1[nH]c2ccccc2c1C1Cc2ccccc2N1C(=O)C#Cc1ccc([N+](=O)[O-])cc1 (configuration not stated) |  | > 100
62 | CCOC(=O)NC(=O)c1cn(C2CCCCC2)c(=O)[nH]c1=O |  | > 100
63 | Cn1c(=O)nc2n(-c3cc(C(F)(F)F)cc(C(F)(F)F)c3)c3ccccc3nc-2c1=O |  | > 100

These molecules were tested on ACHN renal (assay: DTP human tumour cell line panel, 48 h).

Row | Structure (SMILES) | GI50 [µM] | TGI [µM]
64 | O=C1CCCN1c1ccccc1I(=O)=O | > 100 | > 100
65 | Nc1ccccc1C(=O)/C=C/c1c(O)ccc2ccccc12 |  | > 100
66 | CC(C)c1[nH]nc2c1N=C(c1ccccc1Cl)c1cc([N+](=O)[O-])ccc1N2 | 5.45 | 20.4
67 | CCC1CN2CCc3cc(OC)c(OC)cc3C2CC1CC1c2cc(OC)c(OC)cc2CCN1C(=O)C1CCCN1 (configuration not stated) |  | > 100
68 | CC(C(=O)c1ccc(Cl)cc1)/C(=N/NC(=O)NN)C(=O)Nc1cccc(C(F)(F)F)c1 (configuration not stated) |  | > 100
69 | CCOP(=O)(OCC)C(C(=O)OC)C(=O)C(=O)Nc1ccc(Cl)cc1Cl (configuration not stated) |  | > 100
70 | CC(C)=C1CCC(CN(C)C)C1=O (configuration not stated) |  | 31.5
71 | COc1cccc(/C=N/[N-]C(=O)c2ccncc2)c1[O-].COc1cccc(/C=N/[N-]C(=O)c2ccncc2)c1[O-].[O]=[U](=[O])([OH2+])[OH2+] | 3.79 | 27.7
72 | CC(C)(C)c1ccc2c(c1)S(=O)(=O)Nc1ccc(Cl)cc1NS(=O)(=O)c1cc(C(C)(C)C)ccc1OCCOCCOCCO2 |  | > 100
73 | N#CC(=Nc1ccccc1N(C(=O)c1ccccc1)C(=O)c1ccccc1)c1ccccc1 |  | > 100
74 | COc1c(C)n(CCO)ccc1=O |  | > 100
75 | COC(=O)C(=O)C(C(C)=O)C(=O)NCc1ccc(OC)c(OC)c1 (configuration not stated) |  | > 100
76 | Nc1c(-c2ccccc2-c2c(N)[n+]([O-])c3ccccc3[n+]2[O-])[n+]([O-])c2ccccc2[n+]1[O-] |  | > 100
77 | CCOC(=O)NC(=O)c1cn(C(CC)COC(=O)NCCCCCCNC(=O)OCC(CC)n2cc(C(=O)NC(=O)OCC)c(=O)[nH]c2=O)c(=O)[nH]c1=O (configuration not stated) |  | > 100
78 | COc1ccc(-c2nc(-c3cc(OC)cc(OC)c3)[nH]c2-c2ccc(OC)cc2)cc1 | 5.56 | > 100
79 | O=C(CC(=O)C1CCOC1=O)C(=O)Nc1cccc(Cl)c1 (configuration not stated) |  | > 100
80 | CCN1c2ccccc2-c2c3c1cc(C)cc3c1ccccc1[n+]2CC |  | 8.95
81 | Cc1cccc(C2=C/C(=C(\SS/C(C(=O)c3ccc(OCC(=O)O)c(Cl)c3Cl)=C3\C=C(c4cccc(C)c4)SS3)C(=O)c3ccc(OCC(=O)O)c(Cl)c3Cl)SS2)c1 |  | 37.7
